From patent US6858645B2, “Tartrate salts of (R) -3-N,N- dicyclobutylamino-8-fluoro-3,4-dihydro-2H-1- benzopyran-5-carboxamide” (AstraZeneca AB, priority 1997, dated 2005)

Assays:
[1] = Moisture sorption analysis (absorption and desorption), VTI microbalance, as a measure of physical stability; type: physicochemical; settings: 25° C.
Method: Determination of Stability […] The moisture sorption analysis, absorption and desorption, respective was performed using a VTI microbalance, Model […] (VTI Corporation, USA) linked to an IBM PC. The relative humidity (RH) within the balance was monitored using a dew point analyser. […] The desorption profile was also obtained.

[2] = thermogravimetric measurement
[3] = water firmly bound in crystal lattice
[4] = background statement on the salt disclosed in WO 95/11891; cited from earlier work

| Structure (SMILES) | RH at which significant uptake of moisture was recorded ([1]; RH steps of 5%) [%] | moisture absorbed ([1]; RH of 90%) | desorption profile ([1]; desorption after exposure up to 90% RH) | initial weight loss (thermogravimetric) [2] [% w/w] | heating temperature up to which crystal water is not released [3] | behaviour at high relative humidity ([1]; 85% relative humidity) | moisture taken up ([1]; 85% relative humidity) | hygroscopicity / physical stability during manufacturing and storage [4] |
| --- | --- | --- | --- | --- | --- | --- | --- | --- |
| NC(=O)c1ccc(F)c2c1C[C@@H](N(C1CCC1)C1CCC1)CO2.O.O=C(O)C(O)C(O)C(=O)O [Example 2, (R)-3-N,N-dicyclobutylamino-8-fluoro-3,4-dihydro-2H-1-benzopyran-5-carboxamide Hydrogen (2R,3R)-Tartrate Monohydrate] | ≥ 60 | 2.5 % (w/w) | the moisture uptake is reversible | 4.104 | up to 70 °C | – | – | – |
| Cl.NC(=O)c1ccc(F)c2c1C[C@@H](N(C1CCC1)C1CCC1)CO2 [HCl salt, (R)-3-N,N-dicyclobutylamino-8-fluoro-3,4-dihydro-2H-1-benzopyran-5-carboxamide, reference compound] | – | – | – | – | – | exhibits deliquescence | approximately 20 % w/w | hygroscopic and thus physically unstable |
